Publication PMC5693660 (Amino acids, 2017)

Target: T1, deoxyhypusine synthase (DHS) (Homo sapiens, UniProt P49366)
T1 sequence (P49366 1-369): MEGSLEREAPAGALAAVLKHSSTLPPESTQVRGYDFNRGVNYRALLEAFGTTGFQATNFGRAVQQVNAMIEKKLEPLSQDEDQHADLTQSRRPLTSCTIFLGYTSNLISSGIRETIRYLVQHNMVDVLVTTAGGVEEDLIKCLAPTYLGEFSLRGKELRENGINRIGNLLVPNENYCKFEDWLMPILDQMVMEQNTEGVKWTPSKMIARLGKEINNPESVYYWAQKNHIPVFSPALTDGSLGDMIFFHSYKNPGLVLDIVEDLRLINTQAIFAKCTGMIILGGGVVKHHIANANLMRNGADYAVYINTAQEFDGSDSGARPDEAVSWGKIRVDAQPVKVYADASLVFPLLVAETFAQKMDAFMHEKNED
Format: biochemical

N=C(N)NCCCCCCCN [GC7]
IC50: < 1000 nM
